Measured values published in patent US20220184032A1, “INDOLINE DERIVATIVES FOR TREATMENT AND/OR PREVENTION OF FIBROSIS DISEASES” (Taipei Medical University, priority 2015, published 2022).
Read-outs that look alike come from different tables or passages of the source.

Legend:
in vitro = settings: Chinese hamster, CHO cells with S9, % Cytotoxicity Cell Numbers; for cytotoxicity at 31 µM: 3.1E−05 M
[1] = system: BLM-induced lung fibrosis; assay: Bleomycin (BLM)-induced lung fibrosis mice model, preventive model; format: in vivo; settings: days 1 to 21 after BLM
Method: (§1) In preventive model, C57BL/6JNarl mice (8 weeks) were treated with bleomycin (BLM, 0.05 U/50 μl) or PBS (50 μl) by endotracheal administration. TMU-C-0012 (25, 50, 100 mg/kg/day, q.d.) and dexamethasone (0.5 mg/kg/day, q.d.) were administered orally to bleomycin-treated mice from 1 to 21 days after BLM treatment. On day 21, the mice were sacrificed and, the histologic analysis of lung tissue was performed by hematoxylin-eosin (H&E) staining (original magnification, ×100). In therapeutic model, C57BL/6JNarl mice (8 weeks) were treated with bleomycin (BLM, 0.05 U/50 μl) or PBS (50 μl) by endotracheal administration. TMU-C-0012 (25, 50, 100 mg/kg/day, q.d.) and pirfenidone (200 mg/kg/day, q.d.) were administered orally to bleomycin-treated mice from 10 to 38 days after BLM treatment. On day 39, the mice were sacrificed, and the histologic analysis of lung tissue was performed by hematoxylin-eosin (H&E) staining (original magnification, ×100).

[2] = system: BLM-induced lung fibrosis; assay: Bleomycin (BLM)-induced lung fibrosis mice model, therapeutic model; format: in vivo; settings: days 10 to 38 after BLM
Method: as §1

[3] = system: Salmonella typhimurium TA98; assay: Ames test, TA98
Method: (§2) Two histidine auxotrophic mutants (TA98 and TA100) of Salmonella typhimurium were used. Test strains were obtained from the frozen working stock vial and thawed at room temperature. A 0.2 mL aliquot was inoculated into 25 mL nutrient broth medium and then incubated at 35-37° C. with shaking (120 rpm) for 16-18 hours. The test substance was dissolved in DMSO with 10-fold dilutions to obtain 4 stock concentrations at 30,000, 3,000, 300 and 30 μg/mL. Rat liver microsome enzyme homogenate (S9) mixture was prepared containing 8 mM MgCl2, 33 mM KCl, 4 mM NADP, 5 mM glucose-6-phosphate, 100 mM NaH2PO4 (pH 7.4) and 4% (v/v) Aroclor 1254-induced male rat liver microsome enzyme homogenate (S9). A […] aliquot of test compound stock solution was combined with 0.1 mL strain culture and with 0.5 mL rat liver enzyme homogenate (S9) mixture or 0.5 mL PBS, and then the mixture was incubated at 35-37° C. with shaking (120 rpm) for 20 min. Molten top agar (2 mL containing 0.05 mM histidine and 0.05 mM biotin) was added, and then the mixture was poured onto the surface of a minimal glucose agar plate (30 mL of bottom agar per petri plate) to obtain final test substance concentrations at 3000, 300, 30 and 3μg/plate. The plates were incubated at 37° C. for 72 hours, and then the numbers of His+ revertant colonies were counted. Treatments resulting in a three-fold increase (≥3×) in revertant colonies compared to the vehicle control were considered mutagenic. Treatments that reduced the colony counts to ≤50% of the vehicle control were considered cytotoxic. Assays were performed in triplicate.

[4] = system: Salmonella typhimurium TA100; assay: Ames test, TA100
Method: as §2

[5] = system: OVA-induced lung fibrosis; assay: OVA lung fibrosis mice model; format: in vivo; settings: weeks 4 to 12
Method: C57BL/6JNarl mice (8 weeks) were treated with OVA (50 μg/50 μl/day) or PBS (50 μl/day) by i.p. injection for 4 weeks. Then, mice were exposure of OVA (5% aerosol exposure) or PBS (aerosol exposure) for 8 weeks. TMU-C-0012 (25 mg/kg/day, q.d.) and dexamethasone (25 mg/kg/day, q.d.) were administered orally to OVA-injected mice from 4 weeks to 12 weeks. On weeks 12, the mice were sacrificed, and the histologic analysis of lung tissue was performed by hematoxylin-eosin (H&E) staining (original magnification, ×100).

[6] = system: CC14-induced liver fibrosis; assay: CC14-induced liver fibrosis in mice; format: in vivo; settings: weeks 2 to 6
Method: C57BL/6JNarl mice (8 weeks) were treated with CC14 (1 μl/μg/BW, q.w.) or PBS (1 μl/μg/BW, q.w.) by i.p. injection for 6 weeks. TMU-C-0012 (25, 50, 100 mg/kg/day, q.d.) and pirfenidone (250 mg/kg/day, q.d.) were administered orally to CC14-injected mice from 2 weeks to 6 weeks. On day 43, the mice were sacrificed, and the α-SMA analysis of liver tissue was performed by IHC staining (original magnification, ×100).

[7] = reference compound, first section (CHO + S9, HCA), 3.6E−05 M
[8] = first section (CHO + S9, HCA), 1.3E−04 M
[9] = first section (CHO + S9, HCA), 2.5E−04 M
[10] = first section (CHO + S9, HCA), 5.0E−04 M
[11] = first section (CHO + S9, HCA), 6.3E−05 M
[12] = second section (CHO + S9, HCA), 1.6E−05 M
[13] = second section (CHO + S9, HCA), 7.8E−06 M
[14] = TA98, Without S9, 3000 μg/plate
[15] = TA100, Without S9, 300 μg/plate
[16] = TA100, Without S9, 3000 μg/plate
[17] = first section (CHO + S9, HCA), 3.1E−05 M
[18] = second section (CHO + S9, HCA), 3.1E−05 M

## O=P1(N(CCCl)CCCl)NCCCO1 (stereo not shown) [Cyclophosphamide, reference compound]
CHO; [7]
  % Cytotoxicity CBPI Index: 46.3%
  % Micronucleated Cells: 5.31%
  Test Result: + (p < 0.05 by t-test and % of micronucleated cells at least 3-fold higher than background levels.)

## CO[C@@]12[C@H](COC(N)=O)C3=C(C(=O)C(C)=C(N)C3=O)N1C[C@@H]1N[C@@H]12 [Mitomycin C, reference compound]
CHO; reference compound, second section (CHO + S9, HCA), 3.0E−07 M
  % Micronucleated Cells: 4.38%

## O=C(/C=C/c1ccc2c(c1)CCN2S(=O)(=O)c1ccccc1)NO [TMU-C-0012, 3-(1-Benzenesulfonyl-2,3-dihydro-1H-indol-5-yl)-N-hydroxyacrylamide]
In vitro; [8]
  cytotoxicity at 0.00013 M: 37.6%
In vitro; [9]
  cytotoxicity at 0.00025 M: 51.8%
In vitro; first section (CHO + S9, HCA)
  cytotoxicity at 31 µM: 19.1%
In vitro; [10]
  cytotoxicity at 0.0005 M: 61.7%
In vitro; [11]
  cytotoxicity at 63 µM: 31.9%
In vitro; [12]
  cytotoxicity at 16 µM: 60.4%
In vitro; second section (CHO + S9, HCA)
  cytotoxicity at 31 µM: 69%
In vitro; [13]
  cytotoxicity at 7.8 µM: 42.2%
[1]; 25, 50, 100 mg/kg/day q.d. orally, H&E lung histology day 21
  inhibition of BLM-induced lung fibrosis: inhibits BLM-induced lung fibrosis in a dose-dependent manner
[1]; dexamethasone 0.5 mg/kg/day q.d. orally
  efficacy in the inhibition compared with dexamethasone: higher than dexamethasone
[2]; 25, 50, 100 mg/kg/day q.d. orally, H&E lung histology day 39
  inhibition of BLM-induced lung fibrosis: inhibits BLM-induced lung fibrosis in a dose-dependent manner
[2]; pirfenidone 200 mg/kg/day q.d. orally
  efficacy in inhibition compared with pirfenidone: higher than pirfenidone
[3]; TA98, With S9, 3 μg/plate
  Cytotoxicity: −
  Mutagenicity: −
[3]; TA98, With S9, 30 μg/plate
  Cytotoxicity: −
  Mutagenicity: −
[3]; TA98, With S9, 300 μg/plate
  Cytotoxicity: −
  Mutagenicity: −
[3]; TA98, With S9, 3000 μg/plate
  Cytotoxicity: −
  Mutagenicity: −
[3]; TA98, Without S9, 3 μg/plate
  Cytotoxicity: −
  Mutagenicity: −
[3]; TA98, Without S9, 30 μg/plate
  Cytotoxicity: −
  Mutagenicity: −
[3]; TA98, Without S9, 300 μg/plate
  Cytotoxicity: −
  Mutagenicity: −
[3]; [14]
  Cytotoxicity: −
  Mutagenicity: −
[3]; overall Ames test result, TA98 and TA100, with and without S9
  genotoxicity (Ames test results): negative
[4]; TA100, With S9, 3 μg/plate
  Cytotoxicity: −
  Mutagenicity: −
[4]; TA100, With S9, 30 μg/plate
  Cytotoxicity: −
  Mutagenicity: −
[4]; TA100, With S9, 300 μg/plate
  Cytotoxicity: −
  Mutagenicity: −
[4]; TA100, With S9, 3000 μg/plate
  Cytotoxicity: −
  Mutagenicity: −
[4]; TA100, Without S9, 3 μg/plate
  Cytotoxicity: −
  Mutagenicity: −
[4]; TA100, Without S9, 30 μg/plate
  Cytotoxicity: −
  Mutagenicity: −
[4]; [15]
  Cytotoxicity: −
  Mutagenicity: −
[4]; [16]
  Cytotoxicity: −
  Mutagenicity: −
[5]; 25 mg/kg/day q.d. orally, H&E lung histology week 12
  inhibition of OVA-induced lung fibrosis: inhibits OVA-induced lung fibrosis in a dose dependent manner
[5]; dexamethasone 25 mg/kg/day q.d. orally
  efficacy in inhibition compared with dexamethasone: higher than dexamethasone
[6]; 25, 50, 100 mg/kg/day q.d. orally, α-SMA IHC of liver day 43
  inhibition on CC14-induced liver fibrosis: dose-dependent
[6]; pirfenidone 250 mg/kg/day q.d. orally
  efficacy in inhibition compared with pirfenidone: higher than pirfenidone
CHO; [8]
  % Cytotoxicity CBPI Index: 57.4%
  % Micronucleated Cells: 1.45%
CHO; [9]
  % Cytotoxicity CBPI Index: 62.2%
  % Micronucleated Cells: 1.76%
CHO; [17]
  % Cytotoxicity CBPI Index: 41.5%
  % Micronucleated Cells: 1.64%
CHO; [10]
  % Cytotoxicity CBPI Index: 68.8%
  % Micronucleated Cells: 1.94%
CHO; [11]
  % Cytotoxicity CBPI Index: 47.3%
  % Micronucleated Cells: 1.26%
CHO; overall result of the assay
  genotoxicity (micronucleus assay): negative
CHO; second section (CHO + S9, HCA), 1.3E−04 M
  Flat: CYTO (High cytotoxicity resulting in an insufficient number of scored cells (≥80% cytotoxicity))
CHO; [12]
  % Cytotoxicity CBPI Index: 53.1%
  % Micronucleated Cells: 1.35%
CHO; second section (CHO + S9, HCA), 2.5E−04 M
  Flat: CYTO (High cytotoxicity resulting in an insufficient number of scored cells (≥80% cytotoxicity))
CHO; [18]
  % Cytotoxicity CBPI Index: 58.8%
  % Micronucleated Cells: 1.25%
CHO; second section (CHO + S9, HCA), 6.3E−05 M
  Flat: CYTO (High cytotoxicity resulting in an insufficient number of scored cells (≥80% cytotoxicity))
CHO; [13]
  % Cytotoxicity CBPI Index: 26.7%
  % Micronucleated Cells: 1.29%
